# “And” between values parts separate entries of the source, which are not always exact repeats. Identical values can stand only once.
# Assay: SGLU1 multiple dose toxicology in vivo
# Design: species or system mice; key to Death: “—” indicates no compound-related finding
# Protocol: Further studies were performed to determine the dose-limiting toxicity associated with the administration of repeated doses in groups of mice. Tables 11–16 below describe the results of the multiple-dose toxicology studies for MER-1 and Tables 17–21 describe results of the multiple-dose toxicology of SGLU-1.
# The results of the SGLU-1 Multiple Dose I.V. are summarized as follows: Five mice/sex were administered 5 daily intravenous injections of SGLU via the tail vein at doses of 50, 100, 150, 200, 250, 300, and 350 mg/kg/day. All surviving mice were held for 28 days, sacrificed, and designated tissues collected, formalin fixed, and examined.
smiles,measurement,setting,value
"C[As](C)SC[C@H](NC(=O)CC[C@H](N)C(=O)O)C(=O)NCC(=O)O [SGLU1, S-(dimethylarsino) glutathione]",Clinical Signs,50 mg/kg/day IV daily x5,None.
same,Death,50 mg/kg/day IV daily x5,—
same,"Kidney: Murine progressive glomerulonephropathy, incidence","50 mg/kg/day, F",1/5
same,"Liver: Pyogranuloma, focal, incidence","50 mg/kg/day, F",1/5
same,"Lung: Hemorrhage, focal, incidence","50 mg/kg/day, F",1/5
same,Number of animals/dose that tolerated 5 doses,"50 mg/kg/day, F",5/5
same,Body Weights Avg.,"50 mg/kg/day, Female",25 grams
same,"Liver: Pyogranuloma, focal, incidence","50 mg/kg/day, M",1/5
same,"Lung: Atelectasis, incidence","50 mg/kg/day, M",1/5
same,"Lung: Pleural adhesion, focal, incidence","50 mg/kg/day, M",1/5
same,Number of animals/dose that tolerated 5 doses,"50 mg/kg/day, M",5/5
same,Body Weights Avg.,"50 mg/kg/day, Male",25 grams
same,Clinical Signs,100 mg/kg/day IV daily x5,None.
same,Death,100 mg/kg/day IV daily x5,—
same,"Kidney: Inflammation, focal, incidence","100 mg/kg/day, F",2/5
same,"Liver: Pyogranuloma, focal, incidence","100 mg/kg/day, F",5/5
same,Number of animals/dose that tolerated 5 doses,"100 mg/kg/day, F",5/5
same,Body Weights Avg.,"100 mg/kg/day, Female",24 grams
same,"Liver: Pyogranuloma, focal, incidence","100 mg/kg/day, M",1/5
same,Number of animals/dose that tolerated 5 doses,"100 mg/kg/day, M",5/5
same,Body Weights Avg.,"100 mg/kg/day, Male",23 grams
same,Clinical Signs,150 mg/kg/day IV daily x5,None.
same,Death,150 mg/kg/day IV daily x5,—
same,"Liver: Inflammation, portal, incidence","150 mg/kg/day, F",2/5
same,"Liver: Pyogranuloma, focal, incidence","150 mg/kg/day, F",3/5
same,Number of animals/dose that tolerated 5 doses,"150 mg/kg/day, F",5/5
same,Body Weights Avg.,"150 mg/kg/day, Female",25 grams
same,"Kidney: Inflammation, focal, incidence","150 mg/kg/day, M",1/5
same,"Liver: Pyogranuloma, focal, incidence","150 mg/kg/day, M",1/5
same,"Lung: Inflammation, focal, incidence","150 mg/kg/day, M",1/5
same,Number of animals/dose that tolerated 5 doses,"150 mg/kg/day, M",5/5
same,"Tail: Acute necrosis with vasculitis, thrombosis, and hemorrhage, incidence","150 mg/kg/day, M",1/5
same,"Tail: Ulcerative dermatitis, incidence","150 mg/kg/day, M",1/5
same,"Testes: Seminiferous tubular degeneration, incidence","150 mg/kg/day, M",1/5
same,Body Weights Avg.,"150 mg/kg/day, Male",23 grams
same,Clinical Signs,200 mg/kg/day IV daily x5,2 F tail necrosis: amputate
same,Death,200 mg/kg/day IV daily x5,—
same,"Kidney: Inflammation, focal, incidence","200 mg/kg/day, F",2/5
same,"Liver: Hepatocyte hypertrophy: Centrilobular (compatible with SER), incidence","200 mg/kg/day, F",1/5
same,"Liver: Increased mitoses, incidence","200 mg/kg/day, F",1/5
same,"Liver: Inflammation, portal, incidence","200 mg/kg/day, F",3/5
same,"Liver: Pyogranuloma, focal, incidence","200 mg/kg/day, F",3/5
same,Number of animals/dose that tolerated 5 doses,"200 mg/kg/day, F",5/5
same,"Tail: Acute necrosis with vasculitis, thrombosis, and hemorrhage, incidence","200 mg/kg/day, F",4/5
same,"Tail: Ulcerative dermatitis, incidence","200 mg/kg/day, F",2/5
same,Body Weights Avg.,"200 mg/kg/day, Female",24 grams
same,"Epididymus: Oligospermia, incidence","200 mg/kg/day, M",1/5
same,"Heart: Interstitial fat, increased, incidence","200 mg/kg/day, M",1/5
same,"Liver: Ito cell hypertrophy, incidence","200 mg/kg/day, M",1/5
same,"Liver: Pyogranuloma, focal, incidence","200 mg/kg/day, M",2/5
same,Number of animals/dose that tolerated 5 doses,"200 mg/kg/day, M",5/5
same,"Testes: Seminiferous tubular degeneration, incidence","200 mg/kg/day, M",1/5
same,Body Weights Avg.,"200 mg/kg/day, Male",24 grams
same,Clinical Signs,250 mg/kg/day IV daily x5,2 M tail necr.: amputate
same,"Liver: Focus of Alteration, eosinophilic, incidence","250 mg/kg/day, F",1/5
same,"Liver: Hepatocyte hypertrophy: Centrilobular (compatible with SER), incidence","250 mg/kg/day, F",1/5
same,"Liver: Inflammation, portal, incidence","250 mg/kg/day, F",2/5
same,"Liver: Pyogranuloma, focal, incidence","250 mg/kg/day, F",1/5
same,"Lung: Inflammation, focal, incidence","250 mg/kg/day, F",1/5
same,Number of animals/dose that tolerated 4 doses,"250 mg/kg/day, F",1/5
same,Number of animals/dose that tolerated 5 doses,"250 mg/kg/day, F",4/5
same,Body Weights Avg.,"250 mg/kg/day, Female",24 grams
same,"Epididymus: Oligospermia, incidence","250 mg/kg/day, M",1/5
same,"Liver: Hepatocyte hypertrophy: Centrilobular (compatible with SER), incidence","250 mg/kg/day, M",5/5
same,"Liver: Pyogranuloma, focal, incidence","250 mg/kg/day, M",3/5
same,Number of animals/dose that tolerated 5 doses,"250 mg/kg/day, M",5/5
same,"Tail: Acute necrosis with vasculitis, thrombosis, and hemorrhage, incidence","250 mg/kg/day, M",2/5
same,"Tail: Ulcerative dermatitis, incidence","250 mg/kg/day, M",1/5
same,"Testes: Seminiferous tubular degeneration, incidence","250 mg/kg/day, M",2/5
same,Body Weights Avg.,"250 mg/kg/day, Male",24 grams
same,Clinical Signs,300 mg/kg/day IV daily x5,Slight decr. activity and 1 F tail necr.: amputate
same,"Kidney: Congestion, incidence","300 mg/kg/day, F",1/5
same,"Liver: Hepatocyte hypertrophy: Centrilobular (compatible with SER), incidence","300 mg/kg/day, F",2/5
same,"Liver: Hepatocyte hypertrophy: Panlobular w/eosinophilia, incidence","300 mg/kg/day, F",1/5

# Source: US6995188B2 (priority 2002, dated 2006)
